Values belong to the molecule of their own block, whether it stands above or below them.
Tests used:
Assay type in all cases: biochemical
GC-A = target: T1, GC-A (Rattus norvegicus, UniProt P18910); assay: GC assay; settings: for increase of ANP-stimulated GC-A activity by adenine nucleotide: saturating ANP; for EC50: EC50 for activation
T1 sequence (P18910 29-1057): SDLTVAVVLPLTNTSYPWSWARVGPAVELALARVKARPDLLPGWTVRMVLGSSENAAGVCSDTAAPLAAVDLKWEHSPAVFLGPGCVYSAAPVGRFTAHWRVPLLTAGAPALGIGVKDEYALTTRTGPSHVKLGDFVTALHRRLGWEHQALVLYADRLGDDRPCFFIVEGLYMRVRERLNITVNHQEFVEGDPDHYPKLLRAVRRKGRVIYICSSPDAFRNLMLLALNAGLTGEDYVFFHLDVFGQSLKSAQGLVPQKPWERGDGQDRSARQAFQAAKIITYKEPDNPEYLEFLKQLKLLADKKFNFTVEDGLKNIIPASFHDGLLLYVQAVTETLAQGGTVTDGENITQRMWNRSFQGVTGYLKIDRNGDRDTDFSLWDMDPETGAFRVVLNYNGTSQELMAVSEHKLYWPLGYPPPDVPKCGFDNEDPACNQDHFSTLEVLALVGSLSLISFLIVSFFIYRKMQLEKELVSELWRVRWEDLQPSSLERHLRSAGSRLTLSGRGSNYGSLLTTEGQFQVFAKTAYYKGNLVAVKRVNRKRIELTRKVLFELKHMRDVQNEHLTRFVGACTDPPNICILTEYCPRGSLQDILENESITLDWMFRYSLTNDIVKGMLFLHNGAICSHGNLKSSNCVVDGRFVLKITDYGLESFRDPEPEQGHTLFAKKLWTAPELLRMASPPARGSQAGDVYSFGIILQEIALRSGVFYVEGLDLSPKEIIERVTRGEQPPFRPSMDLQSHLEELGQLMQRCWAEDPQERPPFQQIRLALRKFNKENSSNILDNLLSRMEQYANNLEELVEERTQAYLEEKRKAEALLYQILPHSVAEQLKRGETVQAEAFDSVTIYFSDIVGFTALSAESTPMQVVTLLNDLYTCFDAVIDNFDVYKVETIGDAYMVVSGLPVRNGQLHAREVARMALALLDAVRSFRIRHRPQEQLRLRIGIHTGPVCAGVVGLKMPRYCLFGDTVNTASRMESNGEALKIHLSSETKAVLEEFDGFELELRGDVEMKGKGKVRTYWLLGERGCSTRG
T1 sequence (P01161 123-150 partner limits assumed): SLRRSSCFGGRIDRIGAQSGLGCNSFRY

GC-B = GC-B (Rattus norvegicus, UniProt P16067); assay: GC assay
Chain of GC-B (P16067 17-1047): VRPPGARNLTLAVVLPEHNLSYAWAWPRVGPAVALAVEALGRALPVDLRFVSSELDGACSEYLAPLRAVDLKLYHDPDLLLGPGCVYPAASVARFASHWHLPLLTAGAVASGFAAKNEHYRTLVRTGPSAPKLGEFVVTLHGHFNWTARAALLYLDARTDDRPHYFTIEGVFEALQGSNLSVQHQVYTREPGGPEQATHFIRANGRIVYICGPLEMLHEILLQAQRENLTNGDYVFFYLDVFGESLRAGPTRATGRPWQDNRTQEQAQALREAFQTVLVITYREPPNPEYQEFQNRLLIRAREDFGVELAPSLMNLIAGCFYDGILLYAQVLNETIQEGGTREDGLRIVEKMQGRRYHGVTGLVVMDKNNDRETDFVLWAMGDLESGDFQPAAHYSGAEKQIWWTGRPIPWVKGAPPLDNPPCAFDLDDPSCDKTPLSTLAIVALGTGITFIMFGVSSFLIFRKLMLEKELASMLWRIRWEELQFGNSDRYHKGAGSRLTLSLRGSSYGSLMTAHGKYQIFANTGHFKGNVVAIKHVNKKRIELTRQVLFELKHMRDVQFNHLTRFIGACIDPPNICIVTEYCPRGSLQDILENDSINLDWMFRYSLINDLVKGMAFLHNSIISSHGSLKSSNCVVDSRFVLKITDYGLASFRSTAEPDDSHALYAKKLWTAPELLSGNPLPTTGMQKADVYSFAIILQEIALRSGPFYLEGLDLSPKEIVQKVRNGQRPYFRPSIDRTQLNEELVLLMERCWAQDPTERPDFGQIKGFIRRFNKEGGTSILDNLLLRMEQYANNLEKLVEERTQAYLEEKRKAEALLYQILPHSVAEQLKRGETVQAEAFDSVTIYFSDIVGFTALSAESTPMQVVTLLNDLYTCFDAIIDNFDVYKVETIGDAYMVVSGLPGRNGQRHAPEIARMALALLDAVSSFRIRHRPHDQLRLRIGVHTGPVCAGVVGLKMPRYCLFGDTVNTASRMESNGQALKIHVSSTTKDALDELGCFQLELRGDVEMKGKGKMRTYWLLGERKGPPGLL
Chain of GC-B (P55207 105-126 partner limits assumed): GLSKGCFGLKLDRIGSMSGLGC

endogenous GC-B = endogenous GC-B (Mus musculus, UniProt Q6VVW5); assay: GC assay in crude membranes from NIH 3T3 cells; settings: 125 nM CNP, 0.1 mM GTP
Chain of endogenous GC-B (Q6VVW5 17-1047): as the sequence (P16067 17-1047) above, with H100R, T188A, E385D, I449V, R1024Q counted along it

[1] = 1 μM ANP, 9 min, nucleotide at 1 mM
[2] = NP-stimulated, 9 min, 10 μM ATP
[3] = NP-stimulated, 9 min, 100 μM ATP
[4] = CNP-stimulated, presence of ATP
[5] = NP-stimulated, 9 min, 750 μM ATP
[6] = presence of CNP, absence of ATP, increasing Mg2+GTP

Hill coefficient (GC-A; [1]): 1.2 ± 0.24
Km (GC-A; [1]): 400 ± 80 µM
activation of GC-A compared with ATP (GC-A; single-substrate concentration GC assays, 0.1 mM GTP, ANP): poorer activator of GC-A than was ATP
Molecule: Nc1ncnc2c1ncn2[C@H]1C[C@H](O)[C@@H](COP(=O)(O)OP(=O)(O)OP(=O)(O)O)O1 [2′-deoxy-ATP]

Hill coefficient (GC-A; [1]): 1.1 ± 0.18
Km (GC-A; [1]): 200 ± 40 µM
Molecule: Nc1ncnc2c1ncn2[C@@H]1O[C@H](COP(=O)(O)OP(=O)(O)O)[C@@H](O)[C@H]1O [ADP, adenosine diphosphate]

increase of ANP-stimulated GC-A activity by adenine nucleotide (GC-A; 0.1 mM GTP): failed to increase activity
Molecule: Nc1ncnc2c1ncn2[C@@H]1O[C@H](COP(=O)(O)O)[C@@H](O)[C@H]1O [AMP, adenosine monophosphate]

Molecule: Nc1ncnc2c1ncn2[C@@H]1O[C@H](COP(=O)(O)OP(=O)(O)OP(=O)(O)O)[C@@H](O)[C@H]1O [ATP, adenosine triphosphate]
Km (GC-A; [1]): 100 ± 20 µM
EC50 (GC-A; NP-stimulated, 0.1 mM GTP): 77 µM
EC50 (GC-A; NP-stimulated, 0.3 mM GTP): 38 µM
EC50 (GC-A; NP-stimulated, 0.9 mM GTP): 38 µM
EC50 (GC-A; NP-stimulated, 5.4 mM GTP): 16 µM
Km (GC-A; NP-activated receptor, presence of ATP): ~100 µM
Hill coefficient (GC-A; [2]): 1.2 ± 0.08
Hill coefficient (GC-A; [3]): 0.9 ± 0.07
Michaelis constant (GC-A; [3]): 0.08 ± 0.010 mM
S0.5 (GC-B; [4]): 0.09 ± 0.02 mM
Vmax (GC-B; [4]): 41 ± 3.1 nmol mg^−1 (9 min)^−1
EC50 (GC-B; EC50 for ATP activation, approximate value stated in the discussion): ~100 µM
EC50 (GC-B; EC50 for activation, NP-stimulated, 0.1 mM GTP): 40 µM
EC50 (GC-B; EC50 for activation, NP-stimulated, 0.3 mM GTP): 26 µM
EC50 (GC-B; EC50 for activation, NP-stimulated, 0.9 mM GTP): 16 µM
EC50 (GC-B; EC50 for activation, NP-stimulated, 5.4 mM GTP): 19 µM
Hill coefficient (GC-B; [2]): 0.9 ± 0.13
Michaelis constant (GC-B; [2]): 0.4 ± 0.11 mM
Hill coefficient (GC-B; [5]): 0.9 ± 0.24
Michaelis constant (GC-B; [5]): 0.2 ± 0.18 mM
Hill coefficient (GC-B; absence of NPs, presence of ATP): 1.1
S0.5 (GC-B; basal (no NP), presence of ATP): 1.0 ± 0.15 mM
Vmax (GC-B; basal (no NP), presence of ATP): 4 ± 0.3 nmol mg^−1 (9 min)^−1

increase of ANP-stimulated GC-A activity by adenine nucleotide (GC-A; 0.1 mM GTP): failed to increase activity
Molecule: Nc1ncnc2c1ncn2[C@@H]1O[C@H](CO)[C@@H](O)[C@H]1O [adenosine]

Molecule: C-type natriuretic peptide [CNP]
increase of maximal velocity (GC-B; absence of ATP): 13 fold
S0.5 (GC-B; [6]): 1.0 ± 0.15 mM
Vmax (GC-B; [6]): 49 ± 3.7 nmol mg^−1 (9 min)^−1
increase of GC-B activity (endogenous GC-B; absence of ATP): no statistically significant increase in activity
increase of GC-B activity (endogenous GC-B; presence of 1 mM ATP): more than fourfold
